Source: patent US20230416228A1 (Forkhead Biotherapeutics, Inc., priority 2020, published 2023)

These compounds were tested against T1, human FOXO1 (constitutively active form Thr24Ala, Ser256Ala, Ser319Ala) (Homo sapiens, UniProt Q12778, S256A/S319A/T24A) (assay: FOXO1 inhibitor activity assay: cell-based transcriptional (luciferase) reporter assay in HEK293 cells). Conditions: HEK293 cells transfected with insulin response element firefly luciferase reporter, FOXO1 and Renilla luciferase; 10-point dose response 50 μM to 2.5 nM; 24 hours.
T1 construct: expressed in transfected cells; host or cells: HEK293 cells transfected with pcDNA3.1 plasmid
Procedure, shortened: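 IC50 and maximal inhibition were fitted by 4-parameter logistic regression on normalized firefly/Renilla luciferase ratios. The 0% reference used RFP in place of FOXO1, and the 100% reference was DMSO-only with all plasmids.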

T1 sequence (Q12778 whole entry T24A/S256A/S319A): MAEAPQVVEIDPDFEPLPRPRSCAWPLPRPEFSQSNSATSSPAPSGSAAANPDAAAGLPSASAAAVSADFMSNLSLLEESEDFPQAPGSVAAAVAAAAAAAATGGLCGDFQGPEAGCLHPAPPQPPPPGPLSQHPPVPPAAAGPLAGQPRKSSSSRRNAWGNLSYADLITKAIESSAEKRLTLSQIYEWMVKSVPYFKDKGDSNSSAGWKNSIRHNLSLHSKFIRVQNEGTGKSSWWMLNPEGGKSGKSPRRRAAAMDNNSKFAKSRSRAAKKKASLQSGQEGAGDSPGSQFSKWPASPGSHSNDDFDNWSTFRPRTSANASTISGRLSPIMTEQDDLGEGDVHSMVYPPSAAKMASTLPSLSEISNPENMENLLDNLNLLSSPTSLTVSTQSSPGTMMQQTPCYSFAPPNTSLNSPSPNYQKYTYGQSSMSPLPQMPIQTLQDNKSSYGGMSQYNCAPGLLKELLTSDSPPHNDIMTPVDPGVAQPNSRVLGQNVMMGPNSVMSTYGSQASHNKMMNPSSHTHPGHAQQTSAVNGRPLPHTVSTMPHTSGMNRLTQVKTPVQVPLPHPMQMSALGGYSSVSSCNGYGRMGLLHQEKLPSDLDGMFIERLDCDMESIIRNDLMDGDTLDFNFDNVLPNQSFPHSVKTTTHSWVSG

| IC50 [nM] | Structure (SMILES) |
| --- | --- |
| < 100 | Cn1nc(NC(=O)c2ccc(N3CCO[C@H](CO)C3)nc2)cc1-c1nc2ccccc2[nH]1 [Compound A-251, N-[5-(1H-benzimidazol-2-yl)-1-methyl-pyrazol-3-yl]-6-[(2S)-2-(hydroxymethyl)morpholin-4-yl]pyridine-3-carboxamide] |
| < 100 | Cn1nc(NC(=O)c2ccc(OC3COC3)c(Cl)c2)cc1-c1nc2ccccc2[nH]1 [Compound A-252, N-[5-(1H-benzimidazol-2-yl)-1-methyl-pyrazol-3-yl]-3-chloro-4-(oxetan-3-yloxy)benzamide] |
| 100 to 300 | Cc1nc(N2CCN(C)CC2)ccc1C(=O)Nc1cc(-c2nc3ccccc3[nH]2)n(C)n1 [Compound A-253, N-[5-(1H-benzimidazol-2-yl)-1-methyl-pyrazol-3-yl]-2-methyl-6-(4-methylpiperazin-1-yl)pyridine-3-carboxamide] |
| > 1000 | CC(=O)N1CCN(c2ccc(C(=O)Nc3cc(-c4nc5ccccc5[nH]4)n(C)n3)cn2)CC1CO (stereo not drawn) [Compound A-254, 6-14-acetyl-3-(hydroxymethyl)piperazin-1-yl-N-[5-(1H-benzimidazol-2-yl)-1-methyl-pyrazol-3-yl]pyridine-3-carboxamide] |
| < 100 | C[C@@H]1CN(c2ccc(C(=O)Nc3cc(-c4nc5ccccc5[nH]4)n(C)n3)cn2)C[C@H](C)N1 [Compound A-255, N-[5-(1H-benzimidazol-2-yl)-1-methyl-pyrazol-3-yl]-6-[(3R,5S)-3,5-dimethylpiperazin-1-yl]pyridine-3-carboxamide] |
| < 100 | COCCOc1ccc2[nH]c(-c3cc(NC(=O)c4ccc(OC)c(Cl)c4)n[nH]3)nc2c1 [Compound A-256, 3-chloro-4-methoxy-N-[5-[5-(2-methoxyethoxy)-1H-benzimidazol-2-yl]-1H-pyrazol-3-yl]benzamide] |
| 300 to 1000 | Cn1nc(NC(=O)c2ccc(N3CCNC(CO)C3)nc2)cc1-c1nc2ccccc2[nH]1 (stereo not drawn) [Compound A-258, N-[5-(1H-benzimidazol-2-yl)-1-methyl-pyrazol-3-yl]-6-[3-(hydroxy-methyl)piperazin-1-yl]pyridine-3-carboxamide] |
| < 100 | Cn1nc(NC(=O)c2ccc(N3CCN(CC(C)(C)O)CC3)cc2)cc1-c1nc2ccccc2[nH]1 [Compound A-259, N-[5-(1H-benzimidazol-2-yl)-1-methyl-pyrazol-3-yl]-4-[4-(2-hydroxy-2-methyl-propyl)piperazin-1-yl]benzamide] |
| 100 to 300 | [2H]C([2H])([2H])OCCN1CCN(c2ccc(C(=O)Nc3cc(-c4nc5ccccc5[nH]4)n(C)n3)cn2)CC1 [Compound A-260, N-[5-(1H-benzimidazol-2-yl)-1-methyl-pyrazol-3-yl]-6-[4-[2-(trideuterio-methoxy)ethyl]piperazin-1-yl]pyridine-3-carboxamide] |
| < 100 | COc1ccc(C(=O)Nc2cc(-c3nc4cc(N5CCN(C)CC5)ccc4[nH]3)[nH]n2)cc1Cl [Compound A-261, 3-chloro-4-methoxy-N-[5-[5-(4-methylpiperazin-1-yl)-1H-benzimidazol-2-yl]-1H-pyrazol-3-yl]benzamide] |
| 100 to 300 | Cc1nc(N2CCOC(CO)C2)ccc1C(=O)Nc1cc(-c2nc3ccccc3[nH]2)n(C)n1 (stereo not drawn) [Compound A-262, N-[5-(1H-benzimidazol-2-yl)-1-methyl-pyrazol-3-yl]-6-[2-(hydroxy-methyl)morpholin-4-yl]-2-methyl-pyridine-3-carboxamide] |
| 100 to 300 | CN1CCN(c2ccc(C(=O)Nc3cc(-c4nc5ccccc5[nH]4)n(C)n3)cn2)CC1CO (stereo not drawn) [Compound A-263, N-[5-(1H-benzimidazol-2-yl)-1-methyl-pyrazol-3-yl]-6-[3-(hydroxy-methyl)-4-methyl-piperazin-1-yl]pyridine-3-carboxamide] |
| 300 to 1000 | Cc1nc(N2CCN(C3COC3)CC2)ccc1C(=O)Nc1cc(-c2nc3ccccc3[nH]2)n(C)n1 [Compound A-264, N-[5-(1H-benzimidazol-2-yl)-1-methyl-pyrazol-3-yl]-2-methyl-6-[4-(oxetan-3-yl)piperazin-1-yl]pyridine-3-carboxamide] |
| < 100 | COc1ccc(C(=O)Nc2cc(-c3nc4cc(N5CCOCC5)ccc4[nH]3)[nH]n2)cc1Cl [Compound A-265, 3-chloro-4-methoxy-N-[15-(5-morpholino-1H-benzimidazol-2-yl)-1H-pyrazol-3-yl]benzamide] |
| < 100 | Cn1nc(NC(=O)c2ccc(N3CCN(CCOC4CC4)CC3)nc2)cc1-c1nc2ccccc2[nH]1 [Compound A-266, N-[5-(1H-benzimidazol-2-yl)-1-methyl-pyrazol-3-yl]-6-[4-[2-(cyclo-propoxy)ethyl]piperazin-1-yl]pyridine-3-carboxamide] |
| < 100 | Cn1nc(NC(=O)c2ccc(N3C[C@H]4COC[C@H]4C3)nc2)cc1-c1nc2ccccc2[nH]1 [Compound A-267, 6-[(3aR,6aS)-1,3,3a,4,6,6a-hexahydrofuro[3,4-c]pyrrol-5-yl]-N-[5-(1H-benzimidazol-2-yl)-1-methyl-pyrazol-3-yl]pyridine-3-carboxamide] |
| 100 to 300 | Cn1nc(NC(=O)c2ccc(N3CCC4(COC4)C3)nc2)cc1-c1nc2ccccc2[nH]1 [Compound A-268, N-[5-(1H-benzimidazol-2-yl)-1-methyl-pyrazol-3-yl]-6-(2-oxa-7-azaspiro[3.4]octan-7-yl)pyridine-3-carboxamide] |
| 100 to 300 | Cn1nc(NC(=O)c2ccc(N3CCN(C(=O)CO)CC3)nc2)cc1-c1nc2ccccc2[nH]1 [Compound A-269, N-[5-(1H-benzimidazol-2-yl)-1-methyl-pyrazol-3-yl]-6-[4-(2-hydroxyacetyl)piperazin-1-yl]pyridine-3-carboxamide] |
| 300 to 1000 | Cn1nc(NC(=O)c2ccc(N3CC(CO)C3)nc2)cc1-c1nc2ccccc2[nH]1 [Compound A-270, N-[5-(1H-benzimidazol-2-yl)-1-methyl-pyrazol-3-yl]-6-[3-(hydroxymethyl)azetidin-1-yl]pyridine-3-carboxamide] |
| 100 to 300 | COCC(=O)N1CCN(c2ccc(C(=O)Nc3cc(-c4nc5ccccc5[nH]4)n(C)n3)cn2)CC1 [Compound A-271] |
| < 100 | COCC1CN(c2ccc(C(=O)Nc3cc(-c4nc5ccccc5[nH]4)n(C)n3)cn2)C1 [Compound A-272, N-[5-(1H-benzimidazol-2-yl)-1-methyl-pyrazol-3-yl]-6-[3-(methoxymethyl)azetidin-1-yl]pyridine-3-carboxamide] |
| 100 to 300 | Cn1nc(NC(=O)c2ccc(N3CCC4(CCCO4)CC3)nc2)cc1-c1nc2ccccc2[nH]1 [Compound A-273, N-[5-(1H-benzimidazol-2-yl)-1-methyl-pyrazol-3-yl]-6-(1-oxa-8-azaspiro[4.5]decan-8-yl)pyridine-3-carboxamide] |
| 100 to 300 | Cn1nc(NC(=O)c2ccc(N3CC4(CC(O)C4)C3)nc2)cc1-c1nc2ccccc2[nH]1 [Compound A-274, N-[5-(1H-benzimidazol-2-yl)-1-methyl-pyrazol-3-yl]-6-(6-hydroxy-2-azaspiro[3.3]heptan-2-yl)pyridine-3-carboxamide] |
| 100 to 300 | Cn1nc(NC(=O)c2ccc(N3CC4(COC4)C3)nc2)cc1-c1nc2ccccc2[nH]1 [Compound A-275, N-[5-(1H-benzimidazol-2-yl)-1-methyl-pyrazol-3-yl]-6-(2-oxa-6-azaspiro[3.3]heptan-6-yl)pyridine-3-carboxamide] |
